GI50 and TGI data for 18 molecules are collected here from PubChem BioAssay (NCI).

The structures appear in SMILES notation.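 Five compound concentrations were applied to cells in 96-well plates for 48 hours; endpoints were derived by simple linear interpolation of the resulting dose-response curve. GI50 = concentration required for 50% inhibition of growth. TGI denotes the concentration required for complete inhibition of growth.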

Assay in all cases: DTP human tumour cell line panel, 48 h
For assay [1], the system named is BT-549 breast.
Assay [2] deals with MCF7 breast.
Assay [3] deals with SF-295 CNS.
The test system of assay [4] is RXF 393 renal.
Assay [5] relates to NCI/ADR-RES ovarian.
In assay [6] the test system is MOLT-4 leukemia.
The subject of assay [7] is K-562 leukemia.
Assay [8] relates to HL-60(TB) leukemia.
Assay [9] relates to A549 NSCLC.
Assay [10] concerns NCI-H23 lung.

Regarding `CNC(=O)c1cn(C[C@H](F)CCc2ccc(NC(=O)Cc3cc(OC4CC(F)(F)C4)cc(C)n3)nn2)nn1`, the GI50 (in general, the concentration giving 50% growth inhibition) was above 100 µM in assay [1]; above 100 µM in assay [2]; above 100000 nM in assay [3]; above 31.5 µM in assay [4]; above 100 µM in assay [5]; above 93.5 µM in assay [6]. Also, the GI50 in [7] is above 100 µM; in assay [8], above 100 µM; in assay [9] it was 59.4 nM; in [10], above 100 µM. The TGI in assay [1], in assay [2], in assay [3], in assay [4], in assay [5] and in assay [6] was above 100 µM throughout. Also, the TGI in assay [7], in assay [8], in assay [9] and in assay [10] was above 100 µM throughout.
With `CN1CCN(Cc2ccc(NC(=O)c3ccc(C(C)(C)C)c(C#Cc4cnc5cccnn45)c3)cc2C(F)(F)F)CC1`, the GI50 is 15 µM in [1]; 1.82 µM in assay [2]; 1970 nM in assay [3]; 1.8 µM in assay [4]; 2.34 µM in [5]; 1.77 µM in assay [6]. The GI50 is 0.932 µM in assay [7], 2.62 µM in assay [8], 1910 nM in [9] and 1.85 µM in assay [10]. Further, the TGI (usually the concentration at which net growth stops) was 28.9 µM in [1]; 3.46 µM in assay [2]; 3.96 µM in [3]; 3.4 µM in assay [4]; 5.86 µM in assay [5]; 4 µM in assay [6]. Moreover, the TGI was found to be 2.6 µM in [7], 6.5 µM in [8], 3.57 µM in assay [9] and 3.89 µM in assay [10].
Regarding `CCCCCC(C(O)C#N)C(O)(C(F)(F)F)C(F)(F)F` (stereo unspecified), the TGI in assay [1], in [2], in [3], in assay [5], in assay [6] and in assay [7] was above 10 µM each time. The TGI in assay [8], in [9] and in [10] was above 10 µM each time.
Turning to `Cc1c(-c2nc(N)nc(C3CC3)c2C)nc(N)nc1C1CC1`, the TGI in assay [1], in [2], in assay [3], in [4], in [5] and in assay [6] was above 100 µM in each case. Besides, the TGI in assay [7], in [8], in assay [9] and in [10] was above 100 µM throughout.
Turning to `O=C(N/N=C/c1ccc(Cl)cc1Cl)c1ccccc1Nc1cccc(C(F)(F)F)c1`, the GI50 in assay [1] is 3.84 µM; in assay [2] it was 11.3 µM; in assay [3] it was 2550 nM; in assay [4], 2.24 µM; in [5] it was 5.97 µM; in [6] it was 4.22 µM. In addition, the GI50 in assay [7] is 4.86 µM; in [8] it was 79 µM; in assay [9], 2310 nM; in assay [10] it was 5.93 µM. The TGI in assay [1] is 32.5 µM; in assay [2], above 100 µM; in assay [3], 8.8 µM; in assay [4] it was 4.41 µM; in [5], 36.7 µM; in assay [6] it was 40 µM. Also, the TGI in [7] is above 100 µM; in assay [8], above 100 µM; in [9] it was 6.18 µM; in assay [10] it was 32.8 µM.
Take `C=C1CC(COc2cc(Cl)nc(N)n2)C1`: the GI50 is 20.6 µM in assay [1]; 39.4 µM in assay [2]; 34400 nM in [3]; 36.8 µM in assay [4]; 33.4 µM in [5]; 40.2 µM in [6]. Further, the GI50 in [7] was 40 µM; in assay [8], 35.1 µM; in [9], 33900 nM; in [10] it was 38.6 µM.
With `Cc1ccc([N+](=O)[O-])c2c(NCCCN(C)C)ccnc12`, the TGI in [1], in assay [2], in [3], in assay [4], in [5] and in [6] was above 100 µM in each case. Further, the total growth inhibition concentration (TGI) in assay [7], in [8], in assay [9] and in assay [10] was above 100 µM each time.
In the case of `Cc1sc(C)c(-c2ccc(CO)o2)c1-c1ccc(CO)o1`, the GI50 in assay [1] was above 71.7 µM; in assay [2], 0.0787 µM; in assay [3], 276 nM; in [4], 0.316 µM; in assay [5], above 84.4 µM; in [6], 48.9 µM. Moreover, the GI50 is 0.622 µM in assay [7], 52.5 µM in assay [8], 2880 nM in assay [9] and above 100 µM in assay [10]. Further, the TGI in assay [1], in assay [2], in assay [3], in assay [4], in assay [5] and in assay [6] was above 100 µM each time. Further, the TGI in [7], in assay [8], in assay [9] and in assay [10] was above 100 µM in each case.
`CS(=O)(=O)Nc1ccc(-c2ccc3c(NC(=O)C4CC4)n[nH]c3c2)cc1`: the GI50 in assay [1] is above 19.2 µM; in [2], above 23.2 µM; in assay [3], above 25000 nM; in [4], above 17.7 µM; in [5], above 25 µM; in [6], above 15.7 µM. Besides, the GI50 in assay [7] is 13.3 µM; in assay [8] it was above 16.7 µM; in assay [9], above 25000 nM; in assay [10] it was above 25 µM. For the same molecule, the TGI in assay [1], in assay [2], in assay [3], in [4], in assay [5] and in [6] was above 25 µM in each case. Further, the TGI in assay [7], in [8], in [9] and in [10] was above 25 µM each time.
Turning to `FC(F)(F)c1ccc2c(Nc3cccc(C4CC(c5ccccc5)=NN4c4ccc(Cl)cc4)c3)ccnc2c1` (stereo unspecified), the GI50 in assay [1] was 2.29 µM; in assay [2], 1.67 µM; in assay [3], 2250 nM; in assay [4], 4.82 µM; in assay [5] it was 2.63 µM; in [6] it was 3.6 µM. Also, the GI50 in assay [7] was 3.31 µM; in assay [8], 4.04 µM; in assay [9], 10700 nM; in assay [10], 4.22 µM. For the same molecule, the TGI worked out at 7.4 µM in assay [1]; 10.6 µM in [2]; 8.67 µM in assay [3]; 20.1 µM in assay [4]; 10.3 µM in assay [5]; 19.5 µM in assay [6]. Further, the TGI was 14.3 µM in assay [7], 18.8 µM in assay [8], 44.8 µM in [9] and 25.3 µM in assay [10].
Consider `CCN(Cc1c(F)cccc1F)c1ccc(CO)c(Cl)c1`, for which the GI50 in assay [1] was 16.5 µM; in assay [2] it was 0.0488 µM; in assay [3], 108 nM; in assay [4], 1.14 µM; in assay [5], 6.86 µM; in assay [6], 22.1 µM. The GI50 was 0.209 µM in assay [7], 3.1 µM in assay [8], 445 nM in [9] and 15 µM in assay [10]. The TGI in assay [1] was found to be 41.4 µM; in assay [2] it was 18.4 µM; in assay [3], 28 µM; in [4] it was 24.2 µM; in assay [5], 43.2 µM; in [6] it was 71.7 µM. The TGI came to 28.2 µM in assay [7], 39.4 µM in assay [8], 10.7 µM in assay [9] and 57.5 µM in assay [10].
As for `COC(=O)C(Cc1ccccc1)N/C=C\C(=O)c1ccc(Cl)cc1` (stereo unspecified), the GI50 in assay [1] is 28.1 µM; in assay [2], 26.2 µM; in assay [3] it was 14800 nM; in assay [4] it was 20.4 µM; in assay [5] it was 19.7 µM; in [6], 35.2 µM. Moreover, the GI50 is 54.7 µM in assay [7], 50100 nM in [9] and 18.3 µM in assay [10]. In addition, the total growth inhibition concentration (TGI) in assay [1] is above 100 µM; in assay [2] it was 66.4 µM; in assay [3] it was 35.8 µM; in [4], 53.3 µM; in [5], 50.4 µM; in [6], above 100 µM. Further, the values for the TGI in assay [7], in assay [9] and in assay [10] were above 100 µM, above 100 µM and 45.7 µM, respectively.
Consider `COc1ccc2c(c1)C=CC(C#N)N2C(=O)c1ccccc1` (stereo unspecified), for which the TGI is above 67.5 µM in [1]; above 100 µM in assay [2]; above 100 µM in assay [3]; above 100 µM in assay [6]; above 100 µM in assay [7]; above 100 µM in assay [9]. Besides, the concentration for total growth inhibition (TGI) in [10] is above 100 µM. Also, the GI50 in [2] is below 0.01 µM; in assay [3], below 10 nM; in assay [5], below 0.0464 µM; in assay [6], below 0.01 µM; in assay [7] it was below 0.01 µM; in assay [8], below 0.01 µM. Further, the values for the GI50 in assay [9] and in [10] were below 10 nM and below 0.01 µM, respectively.
As to `O=C(Nc1cc(-c2ccccc2)[nH]n1)c1ccc(Cl)cc1`, the GI50 in assay [1] was above 100 µM; in [2], above 100 µM; in assay [3], 1910 nM; in [4], 7.16 µM; in assay [5] it was above 100 µM; in assay [9], 30400 nM. Also, in assay [10], the GI50 was above 100 µM. For the same molecule, the TGI in [1], in assay [2], in [3], in assay [4], in assay [5] and in assay [9] was above 100 µM in each case. The molecule further displayed a TGI in assay [10] above 100 µM.
In the case of `Nc1ccc(SC23CC4CC(CC(C4)C2)C3)cc1`, the TGI in assay [1], in assay [2], in [3], in [4], in [5] and in assay [7] was above 100 µM each time. The TGI in assay [8], in [9] and in [10] was above 100 µM in each case.
Take `COc1cc(/C=C2\CC3C4CC=C5CC(N6CCCC6)CC[C@]5(C)C4CC[C@]3(C)C2OC(C)=O)ccc1OCCN1CCCC1` (stereo partly specified): the GI50 in assay [1] is 16.6 µM; in [2], 1.62 µM; in assay [3], 12700 nM; in [5], 2.52 µM; in [6] it was 2.18 µM; in [7], 1.04 µM. For the same molecule, the GI50 in assay [8] was 2.05 µM; in assay [9], 2080 nM; in [10], 14.2 µM. Also, the TGI stood at 31.4 µM in assay [1]; 3.17 µM in assay [2]; 26.5 µM in assay [3]; 5.2 µM in [5]; 4.48 µM in assay [6]; 3.19 µM in assay [7]. Besides, the figures for the TGI in assay [8], in [9] and in assay [10] were 4.36 µM, 4.63 µM and 27.6 µM, respectively.
For `COc1ccc2c(c1)[C@@]13CCN4CC5=CCO[C@H]6CC(=O)N2[C@H]1[C@H]6[C@H]5C[C@H]43`, the TGI in assay [1], in assay [2], in assay [3], in [4], in assay [5] and in [6] was above 100 µM each time. For the same molecule, the concentration for total growth inhibition (TGI) in [8], in assay [9] and in assay [10] was above 100 µM in each case.
Turning to `C=C(C)[C@@H]1CC[C@@]2(C(=O)O)CC[C@]3(C)C(CCC4[C@@]5(C)CCC(OS(=O)(=O)c6ccccc6)C(C)(C)C5CC[C@]43C)C12` (stereo partly specified), the GI50 in assay [1] was 3.17 µM; in [2] it was 4.4 µM; in assay [3], 1930 nM; in assay [4], 13.8 µM; in [5], 3.52 µM; in [9] it was 2440 nM. Besides, the GI50 in [10] is 3.28 µM. Further, the TGI in [1] was 18.7 µM; in [2], 19.6 µM; in assay [3], 11.8 µM; in assay [4], 29.7 µM; in assay [5], 18 µM; in [9] it was 17.7 µM. The TGI in assay [10] came to 15.5 µM.
